According to ChEMBL document CHEMBL1147116 (Antimicrob Agents Chemother, 2007):
Values after ≈ are worked out from the molar mass of the structure shown.

How the values were obtained:
Streptococcus pneumoniae [1] = assay: microbe, parasite or virus in culture; conditions: Staphylococcus aureus, ATCC 49619
[2] = Half life at 1000 mg/24 hrs regimen in vitro PK model; type: ADME
Streptococcus pneumoniae [3] = assay: microbe, parasite or virus in culture; conditions: Staphylococcus aureus, ATCC 49619, 24 h
Streptococcus pneumoniae [4] = assay: microbe, parasite or virus in culture; conditions: Staphylococcus aureus, BSP2443, 96 h
Streptococcus pneumoniae [5] = assay: microbe, parasite or virus in culture; conditions: Staphylococcus aureus, BSP2443
Streptococcus pneumoniae [6] = assay: fAUC/MIC ratio of Streptococcus pneumoniae ATCC 49610 at 1000 mg
Streptococcus pneumoniae [7] = assay: microbe, parasite or virus in culture; conditions: Staphylococcus aureus, ATCC 49619, 24 h; remark: listed apart in the source
Streptococcus pneumoniae [8] = assay: fAUC/MIC ratio of Streptococcus pneumoniae BSP-2443 at 875 mg
Streptococcus pneumoniae [9] = assay: microbe, parasite or virus in culture; conditions: Staphylococcus aureus, ATCC 49619; remark: listed apart in the source
Streptococcus pneumoniae [10] = assay: fAUC/MIC ratio of Streptococcus pneumoniae ATCC 49610 at 812.5 mg
Streptococcus pneumoniae [11] = assay: fAUC/MIC ratio of Streptococcus pneumoniae BSP-2443 at 812.5 mg
Streptococcus pneumoniae [12] = assay: microbe, parasite or virus in culture; conditions: Staphylococcus aureus, BSP2443, 96 h; remark: listed apart in the source
Streptococcus pneumoniae [13] = assay: fAUC/MIC ratio of Streptococcus pneumoniae ATCC 49610 at 500 mg
Streptococcus pneumoniae [14] = assay: fAUC/MIC ratio of Streptococcus pneumoniae ATCC 49610 at 875 mg
[15] = Peak free concentration at 500 mg/24 hrs regimen in vitro PK model; type: ADME
[16] = Half life at 500 mg/24 hrs regimen in vitro PK model; type: ADME
Streptococcus pneumoniae [17] = assay: microbe, parasite or virus in culture; conditions: Staphylococcus aureus, ATCC 49619, 24 h; remark: listed apart in the source
Streptococcus pneumoniae [18] = assay: microbe, parasite or virus in culture; conditions: Staphylococcus aureus, ATCC 49619; remark: listed apart in the source
[19] = Half life at 843.5 mg/24 hrs regimen in vitro PK model; type: ADME
Streptococcus pneumoniae [20] = assay: fAUC/MIC ratio of Streptococcus pneumoniae BSP-2443 at 937.5 mg
[21] = Half life at 875 mg/24 hrs regimen in vitro PK model; type: ADME
Streptococcus pneumoniae [22] = assay: microbe, parasite or virus in culture; conditions: Staphylococcus aureus, ATCC 49619; remark: listed apart in the source
Streptococcus pneumoniae [23] = assay: microbe, parasite or virus in culture; conditions: Staphylococcus aureus, ATCC 49619; remark: listed apart in the source
Streptococcus pneumoniae [24] = assay: microbe, parasite or virus in culture; conditions: Staphylococcus aureus, BSP2443; remark: listed apart in the source
[25] = Half life at 812.5 mg/24 hrs regimen in vitro PK model; type: ADME
[26] = Peak free concentration at 750 mg/24 hrs regimen in vitro PK model; type: ADME
[27] = Peak free concentration at 812.5 mg/24 hrs regimen in vitro PK model; type: ADME
Streptococcus pneumoniae [28] = assay: microbe, parasite or virus in culture; conditions: Staphylococcus aureus, BSP2443; remark: listed apart in the source
Streptococcus pneumoniae [29] = assay: microbe, parasite or virus in culture; conditions: Staphylococcus aureus, BSP2443; remark: listed apart in the source
Streptococcus pneumoniae [30] = assay: microbe, parasite or virus in culture; conditions: Staphylococcus aureus, BSP2443; remark: listed apart in the source
Streptococcus pneumoniae [31] = assay: fAUC/MIC ratio of Streptococcus pneumoniae BSP-2443 at 750 mg
Streptococcus pneumoniae [32] = assay: microbe, parasite or virus in culture; conditions: Staphylococcus aureus, BSP2443; remark: listed apart in the source
Streptococcus pneumoniae [33] = assay: microbe, parasite or virus in culture; conditions: Staphylococcus aureus, ATCC 49619; remark: listed apart in the source
Streptococcus pneumoniae [34] = assay: fAUC/MIC ratio of Streptococcus pneumoniae BSP-2443 at 843.5 mg
Streptococcus pneumoniae [35] = assay: fAUC/MIC ratio of Streptococcus pneumoniae ATCC 49610 at 750 mg
Streptococcus pneumoniae [36] = assay: Susceptibility of Streptococcus pneumoniae ATCC 49619 by microdilution method; type: functional
Streptococcus pneumoniae [37] = assay: fAUC/MIC ratio of Streptococcus pneumoniae ATCC 49610 at 843.5 mg
[38] = Half life at 750 mg/24 hrs regimen in vitro PK model; type: ADME
Streptococcus pneumoniae [39] = assay: fAUC/MIC ratio of Streptococcus pneumoniae BSP-2443 at 1000 mg
[40] = Peak free concentration at 875 mg/24 hrs regimen in vitro PK model; type: ADME
Streptococcus pneumoniae [41] = assay: Susceptibility of Streptococcus pneumoniae BSP-2443 by microdilution method; type: functional; conditions: BSP2443
[42] = Peak free concentration at 1000 mg/24 hrs regimen in vitro PK model; type: ADME
[43] = Peak free concentration at 843.5 mg/24 hrs regimen in vitro PK model; type: ADME
Streptococcus pneumoniae [44] = assay: microbe, parasite or virus in culture; conditions: Staphylococcus aureus, ATCC 49619; remark: listed apart in the source
[45] = Peak free concentration at 200 mg/24 hrs regimen in vitro PK model; type: ADME
[46] = Peak free concentration at 400 mg/24 hrs regimen in vitro PK model; type: ADME
[47] = Peak free concentration at 75 mg/24 hrs regimen in vitro PK model; type: ADME
Streptococcus pneumoniae [48] = assay: microbe, parasite or virus in culture; conditions: Staphylococcus aureus, ATCC 49619; remark: listed apart in the source
[49] = Peak free concentration at 50 mg/24 hrs regimen in vitro PK model; type: ADME
Streptococcus pneumoniae [50] = assay: microbe, parasite or virus in culture; conditions: Staphylococcus aureus, BSP2443, 96 h; remark: listed apart in the source
Streptococcus pneumoniae [51] = assay: microbe, parasite or virus in culture; conditions: Staphylococcus aureus, ATCC 49619; remark: listed apart in the source
Streptococcus pneumoniae [52] = assay: microbe, parasite or virus in culture; conditions: Staphylococcus aureus, ATCC 49619; remark: listed apart in the source
Streptococcus pneumoniae [53] = assay: microbe, parasite or virus in culture; conditions: Staphylococcus aureus, BSP2443; remark: listed apart in the source
Staphylococcus aureus [54] = assay: Bactericidal activity against Staphylococcus aureus ATCC 49619 at fAUC/MIC of […] after 72 hrs in pharmacodynamic model; type: functional; conditions: ATCC 49619, 72 h
[55] = Peak free concentration at 100 mg/24 hrs regimen in vitro PK model; type: ADME
Streptococcus pneumoniae [56] = assay: microbe, parasite or virus in culture; conditions: Staphylococcus aureus, BSP2443; remark: listed apart in the source
Streptococcus pneumoniae [57] = assay: microbe, parasite or virus in culture; conditions: Staphylococcus aureus, BSP2443, 72 h
Streptococcus pneumoniae [58] = assay: Bactericidal activity against Streptococcus pneumoniae BSP-2443 with parC S52G, N91D mutation and gyrA S114G mutation at fAUC/MIC of 24 after 72 hrs in pharmacodynamic model; conditions: BSP2443, 72 h
Streptococcus pneumoniae [59] = assay: microbe, parasite or virus in culture; conditions: Staphylococcus aureus, ATCC 49619; remark: listed apart in the source
Streptococcus pneumoniae [60] = assay: microbe, parasite or virus in culture; conditions: Staphylococcus aureus, BSP2443; remark: listed apart in the source
Staphylococcus aureus [61] = assay: Bactericidal activity against Staphylococcus aureus ATCC 49619 at fAUC/MIC of […] after 96 hrs in pharmacodynamic model; type: functional; conditions: ATCC 49619, 96 h
Streptococcus pneumoniae [62] = assay: Bactericidal activity against Streptococcus pneumoniae BSP-2443 with parC S52G, N91D mutation and gyrA S114G mutation at fAUC/MIC of 24 after 96 hrs in pharmacodynamic model; conditions: BSP2443, 96 h

## C[C@H]1COc2c(N3CCN(C)CC3)c(F)cc3c(=O)c(C(=O)O)cn1c23.C[C@H]1COc2c(N3CCN(C)CC3)c(F)cc3c(=O)c(C(=O)O)cn1c23.O [LEVOFLOXACIN]
Streptococcus pneumoniae [1]
  MIC: > 32 µg/mL
[2]
  half-life: 7.85 h
Streptococcus pneumoniae [3]
  MIC: 1.5 µg/mL
Streptococcus pneumoniae [4]
  MIC: > 32 µg/mL
Streptococcus pneumoniae [5]
  MIC: > 32 µg/mL
Streptococcus pneumoniae [6]
  fAUC/MIC: 114
Streptococcus pneumoniae [7]
  MIC: 1.5 µg/mL
Streptococcus pneumoniae [8]
  fAUC/MIC: 94
Streptococcus pneumoniae [9]
  MIC: 0.75 µg/mL
Streptococcus pneumoniae [10]
  fAUC/MIC: 82
Streptococcus pneumoniae [11]
  fAUC/MIC: 83
Streptococcus pneumoniae [12]
  MIC: 2 µg/mL
Streptococcus pneumoniae [13]
  fAUC/MIC: 55
Streptococcus pneumoniae [14]
  fAUC/MIC: 97
[15]
  Activity: 4.1 µg/mL
[16]
  half-life: 8.01 h
Streptococcus pneumoniae [17]
  MIC: 0.75 µg/mL
Streptococcus pneumoniae [18]
  MIC: > 32 µg/mL
[19]
  half-life: 6.98 h
Streptococcus pneumoniae [20]
  fAUC/MIC: 104
[21]
  half-life: 8.02 h
Streptococcus pneumoniae [22]
  MIC: 0.75 µg/mL
Streptococcus pneumoniae [23]
  MIC: > 32 µg/mL
Streptococcus pneumoniae [24]
  MIC: 0.75 µg/mL
[25]
  half-life: 7.06 h
[26]
  Activity: 6.13 µg/mL
[27]
  Activity: 6.78 µg/mL
Streptococcus pneumoniae [28]
  MIC: 0.75 µg/mL
Streptococcus pneumoniae [29]
  MIC: 0.75 µg/mL
Streptococcus pneumoniae [30]
  MIC: 0.75 µg/mL
Streptococcus pneumoniae [31]
  fAUC/MIC: 75
Streptococcus pneumoniae [32]
  MIC: 0.75 µg/mL
Streptococcus pneumoniae [33]
  MIC: 0.75 µg/mL
Streptococcus pneumoniae [34]
  fAUC/MIC: 86
Streptococcus pneumoniae [35]
  fAUC/MIC: 79
Streptococcus pneumoniae [36]
  MIC: 0.025 µg/mL
Streptococcus pneumoniae [37]
  fAUC/MIC: 89
[38]
  half-life: 7.52 h
Streptococcus pneumoniae [39]
  fAUC/MIC: 117
[40]
  Activity: 7.19 µg/mL
Streptococcus pneumoniae [41]
  MIC: 0.025 µg/mL
[42]
  Activity: 8.75 µg/mL
[43]
  Activity: 7.09 µg/mL

## COc1c(N2C[C@@H]3CCCN[C@@H]3C2)c(F)cc2c(=O)c(C(=O)O)cn(C3CC3)c12 [MOXIFLOXACIN]
Streptococcus pneumoniae [44]
  MIC: 0.125 µg/mL (≈ 0.311 µM)
[45]
  Activity: 1.1 µg/mL
[46]
  Activity: 2.48 µg/mL
[47]
  Activity: 0.45 µg/mL
Streptococcus pneumoniae [48]
  MIC: 0.125 µg/mL (≈ 0.311 µM)
[49]
  Activity: 0.3 µg/mL
Streptococcus pneumoniae [50]
  MIC: 4 µg/mL (≈ 9.96 µM)
Streptococcus pneumoniae [51]
  MIC: 0.125 µg/mL (≈ 0.311 µM)
Streptococcus pneumoniae [52]
  MIC: 0.125 µg/mL (≈ 0.311 µM)
Streptococcus pneumoniae [53]
  MIC: 0.25 µg/mL (≈ 0.623 µM)
Staphylococcus aureus [54]
  MIC: 0.19 µg/mL (≈ 0.473 µM)
[55]
  Activity: 0.6 µg/mL
Streptococcus pneumoniae [56]
  MIC: 0.25 µg/mL (≈ 0.623 µM)
Streptococcus pneumoniae [57]
  MIC: 4 µg/mL (≈ 9.96 µM)
Streptococcus pneumoniae [58]
  MIC: 0.38 µg/mL
Streptococcus pneumoniae [36]
  MIC: 0.025 µg/mL (≈ 0.0623 µM)
Streptococcus pneumoniae [59]
  MIC: 0.125 µg/mL (≈ 0.311 µM)
Streptococcus pneumoniae [60]
  MIC: 0.25 µg/mL (≈ 0.623 µM)
Staphylococcus aureus [61]
  MIC: 0.75 µg/mL (≈ 1.87 µM)
Streptococcus pneumoniae [62]
  MIC: 1.5 µg/mL
Streptococcus pneumoniae [41]
  MIC: 0.025 µg/mL (≈ 0.0623 µM)
